Measured values reported in patent publication US6416964B2, “Methods of identifying modulators of kinases responsive to stress” (Merck & Co., Inc., priority 1998, dated 2002).

How the values were obtained:
[1] = tested on: 34 kDa Kinase; experiment: in-gel kinase assay in osteoclast-like cells; assay type: cell-based, mouse
Method: (§1) The following procedure is a modification of Wesolowski et al. (1995, Exp. Cell Res. 219: 679-686), which is incorporated by reference herein in its entirety. Cocultures are made by adding marrow cells from 6-week old mouse tibia and femur onto a monolayer of MB 1.8 mouse calvaria osteoblasts that are preseeded into culture dishes in α-MEM (minimal essential medium) containing fetal calf serum (10%) and 1,25 Dihydroxy Vitamin D3 (10 nM). Cocultures are maintained, with media changes every 48 hours, for a period of 6 days. Non-osteoclastic cells are removed by treatment of cocultures with Collagenase I (1 mg/ml in Phosphate Buffered Saline [PBS]). Collagenase-sensitive cells are removed by washing with PBS. Preosteoclasts are lifted from the dish using EDTA (0.2 g/L in PBS) and transferred into culture dishes and maintained in α-MEM containing fetal calf serum (10%), 1,25 Dihydroxy Vitamin D3 (10 nM), and m-Colony Stimulating Factor (5 ng/ml). Osteoclast-like cells (collagenase-insensitive, EDTA-insensitive cells) that remain attached to the original coculture dishes are maintained in α-MEM containing fetal calf serum (10%), 1,25 Dihydroxy Vitamin D3 (10 nM), and m-Colony Stimulating Factor (5 ng/ml).
(§2) Preosteoclasts are generated and purified as described in Example 1. […] Untreated cells are included in the analyses and act as a negative control for kinase activities. Cells are then harvested and lysed in a HEPES (N-(2-hydroxyethyl)piperazine-N′-(2-ethansulfonic acid) or Tris buffer containing the following: β-glycerophosphate (50 mM); Na3VO4 (1 mM); NaF (1 mM); Microcystin LR (1 μM); leupeptin (10 μg/ml); aprotinin (10 μg/ml); phenylmethyl sulfonylfluoride (1 mM). Protein concentrations are determined for each lysate and 5-20 μg are loaded into each lane of a SDS-PAGE (sodium dodecyl sulfate-polyacrylamide gel electrophoresis) gel containing Myelin Basic Protein, or another kinase substrate, which has been polymerized into the gel at a concentration between 50-400 μg/ml. Molecular weight standards are also loaded into one or more lanes of the gels. In-gel kinase assays are run according to a standard procedure based on Kameshita and Fujisawa, 1989 (Anal. Biochem. 183:139-143) and of Gotoh et al., 1990 (Eur. J. Biochem. 193: 661-669), both references being incorporated by reference herein in their entirety. The proteins are electrophoresed in the above gels. The gels are then successively soaked in 50 mM HEPES, pH 7.6; 5 mM 2-mercaptoethanol and each of the following (for each wash): (a) 20% isopropanol; (b) no additions; (c) urea (6 M); (d) Urea (3 M); (e) Urea (0.75 M); and Tween 20 (0.05% vol:vol). Kinase reactions are then run by first soaking the gels in 20 mM HEPES, pH 7.6; 20 mM MgCl2; 2 mM DTT and then in the same buffer containing […] (non-radioactive) with ca. 1000 cpm/pmol ^32P-γ-ATP. The gels are then washed six times with 5% trichloroacetic acid and 1% pyrophosphate. The gels are then stained with Coomassie brilliant blue dye (0.125%) in 50% methanol, 10% acetic acid; destained with 30% methanol, 10% acetic acid; soaked in 2% glycerol; and dried using a gel dryer. The gels are then exposed to autoradiography film for times ranging from several hours to weeks. The bands observed in the autoradipgraphs representing the gels reflect kinase activities. […] The band intensities on the autoradiography film are quantitated by densitometry and comparisons between bands from untreated controls and bands from echistatin-treated cells provide the basis for the analyses.
A similar approach is also used to assay for the 34 kDa Kinase and the 130 kDa Kinase.
Osteoclast-like cells are generated as described in Example 1. The compound or compounds to be evaluated are added at the desired concentration to the osteoclast-like cells for any of various times (1 minute to several hours). Cell lysates are made using standard techniques and in-gel kinase assays are performed as described in Example 2.

[2] = tested on: 34 kDa Mst kinase (Mst 1 cleavage); experiment: 34 kDa Mst kinase activation / Mst 1 cleavage in purified osteoclasts; assay type: cell-based; conditions: for activation of the 34 kDa Mst kinase: purified osteoclasts
[3] = tested on: Mst 1, Mst 2; experiment: in-gel kinase assay in Parental HEK 293 cells; assay type: cell-based, human; conditions: 10-60 min (FIG. 5D-5F), Ala^24 echistatin 30 nM
[4] = tested on: 50 kDa Kinase; experiment: in-gel kinase assay in HEK 293 transfectants expressing human αvβ3 integrin; assay type: cell-based; conditions: αvβ3 integrin transfected HEK 293 cells
[5] = tested on: Mst 1, Mst 2; experiment: as above; assay type: cell-based; conditions: αvβ3 integrin transfected HEK 293 cells
[6] = tested on: stress reponsive kinases; experiment: activation of stress responsive kinases by compounds that modify osteoclast function; assay type: cell-based
Method: as §2

[7] = tested on: 50 kDa Kinase; experiment: in-gel kinase assay in Parental HEK 293 cells; assay type: cell-based, human; conditions: 10-60 min (FIG. 5D-5F), Ala^24 echistatin 30 nM
[8] = tested on: approximately 60 kDa kinase doublet (Mst 1, Mst 2); experiment: in-gel kinase assay (myelin basic protein substrate) in purified preosteoclasts; assay type: cell-based, mouse
Method: as §1, §2

[9] = tested on: 50 kDa Kinase; experiment: as above; assay type: cell-based, mouse
Method: as §1, §2

[10] = dose response, standard (overnight) film exposure (FIG. 2A)
[11] = osteoclast like cells, 30 μM and 100 μM, about 17 hours (FIG. 6)
[12] = osteoclast-like cells, 100 μM and 300 μM (FIG. 9)

In the case of CC(C)=CCC/C(C)=C/CC/C(C)=C/CC/C(C)=C/CO [geranylgeraniol], the “effect on activation of 34 kDa Kinase by 30 μM alendronate monosodium trihydrate” value ([1]; osteoclast like cells, 10 μM geranyl geraniol (FIG. 7, lane 3)) is reported as “negates this activation”, the “blocking of alendronate- and risedronate-induced Mst 1 cleavage” value [2] is reported as “essentially completely blocked” and the “blocking of clodronate effects (34 kDa Mst kinase)” value [2] is reported as “not blocked”. For the same compound, the “blocking of lovastatin effects (34 kDa Mst 1 activity)” value (from here on “blocking of lovastatin effects”) [2] was “blocked”.

With echistatin the “effect on activities of Mst 1, Mst 2” value [3] was “no significant effect”, the “change in 50 kDa Kinase activity” value ([4]; 30 nM, 0-60 min (FIG. 5A, 5C)) was “increase” and the “change in Mst 1 (ca. 59 kDa), Mst 2 (ca. 60 kDa) activities” value ([5]; 30 nM, 0-60 min (FIG. 5A, 5C)) was “increase”. The “activation of stress responsive kinases” value [6] was “activate”, the “effect on activity of 50 kDa Kinase” value [7] was “no significant effect” and the “activation of approximately 60 kDa kinase doublet” value ([8]; 30 nM, time course (FIG. 1B)) was “strongly activated”. The “concentration of maximal activities of approximately 60 kDa kinase doublet” value [8, 10] was “about 30 nM”, the “concentrations showing activation of approximately 60 kDa kinase doublet” value [8, 10] was ≥ 10 nM and the “treatment time of maximal kinase activity” value ([8]; timecourse (FIG. 4A)) was 20 min. For the same compound, the “activation of kinase of approximately 50 kDa” value ([9]; 30 nM, time course (FIG. 1B)) was “also activated” and the “activation of the approximately 50 kDa kinase” value ([9]; 30 and 100 nM doses, extended (about 3-4 days) exposure (FIG. 2B)) was “activation”.

With C[C@@](O)(CCO)CC(=O)O [mevalonic acid] the “blocking of lovastatin effects” value [2] was “blocked”.

With NCCC(O)(P(=O)(O)O)P(=O)(O)O [pamidronate, 3-amino-1-hydroxypropylidene-1,1-bisphosphonic acid] the “activation of the 34 kDa Mst kinase” value [2] was “induce activation”.

In the case of NCCCC(O)(P(=O)(O)O)P(=O)(O)O [alendronate, 4-amino-1-hydroxybutylidene-1,1-bisphosphonic acid monosodium trihydrate], the “activation of 34 kDa Kinase” value ([1]; osteoclast like cells, 30 μM (FIG. 7, lane 2)) is reported as “activation”, the “activation of 34 kDa Kinase” value [1, 11] is reported as “activation” and the “activation of 34 kDa Kinase” value ([1]; osteoclast-like cells, 10 μM and 30 μM, about 17 hours (FIG. 9)) is reported as “activation”. The “activation of 34 kDa Kinase immunoprecipitated by anti-Mst and anti-Krs antibody cocktail” value ([1]; osteoclast-like cells, 30 μM (FIG. 10, lane 3)) was “activated”, the “activation of 34 kDa Kinase when coincubated with caspase inhibitor Z—VAD—FMK” value ([1]; osteoclast-like cells, in the presence of Z—VAD—FMK (FIG. 9, lane 8)) was “does not activate” and the “activation of stress responsive kinases” value [6] was “activate”. For the same compound, the “activation of the 34 kDa Mst kinase” value [2] was “induce activation”.

O=P(O)(O)C(Sc1ccc(Cl)cc1)P(=O)(O)O [tiludronate disodium, (4-chlorophenyl)thiomethane-1,1-disphosphonic acid] was tested, and the “activation of 34 kDa Kinase” value [1, 11] was “failed to activate” and the “activation of 34 kDa Kinase” value [1, 12] was “failed to activate”.

O=P(O)(O)C(Cl)(Cl)P(=O)(O)O [Clodronate, 1,1-dichloromethylene-1,1-diphosphonic acid] was tested, and the “activation of the 34 kDa Mst kinase” value [2] was “also induce”.

In the case of O=C(NC[C@H](NS(=O)(=O)c1ccccc1)C(=O)O)c1ccc(OCCNC2=NCCCN2)cc1 [RGD II, (2-[N-(3,4,5,6-tetrahydropyrimidin-2-yl)amino]ethyloxyphen-4-yl)carbonyl-2(S)-phenylsulfonamido-beta-alanine], the “change in 50 kDa Kinase activity” value ([4]; 10 μM, 0-60 min (FIG. 5B)) is reported as “increase”, the “change in Mst 1 (ca. 59 kDa), Mst 2 (ca. 60 kDa) activities” value ([5]; 10 μM, 0-60 min (FIG. 5B)) is reported as “increase” and the “activation of stress responsive kinases” value [6] is reported as “activate”. For the same compound, the “activation of Mst 1, Mst 2” value ([8]; 10 μM (FIG. 4B)) was “effective in activating” and the “activation of 50 kDa kinase” value ([9]; 10 μM (FIG. 4B)) was “effective in activating”.

With CC(O)(P(=O)(O)O)P(=O)(O)O [etidronate disodium, 1-hydroxyethane-1,1-diphosphonic acid] the “activation of 34 kDa Kinase” value [1, 11] was “failed to activate”, the “activation of 34 kDa Kinase” value [1, 12] was “failed to activate” and the “activation of the 34 kDa Mst kinase” value [2] was “to a lesser extent”.

For C[C@@]1(O)CCOC(=O)C1 [mevalonic acid lactone], the “reduction of alendronate- and risedronate-induced Mst 1 cleavage” value [2] was “about 50%”.

calcitonin was tested, and the “activation of stress responsive kinases” value [6] was “activate”.

In the case of CC(C)=CCCC(C)=CCCC(C)=CCO [farnesol], the “blocking of lovastatin effects” value [2] is reported as “not” and the “reduction of alendronate- and risedronate-induced Mst 1 cleavage” value [2] is reported as “about 50%”.

CC[C@H](C)C(=O)O[C@H]1C[C@@H](C)C=C2C=C[C@H](C)[C@H](CC[C@@H]3C[C@@H](O)CC(=O)O3)[C@H]21 [lovastatin] was tested, and the “34 kDa Mst 1 activity” value ([2]; treatment for 17-24 hours) was “increases”.

In the case of Cl.Cl.Cl.O=C(O)C[C@H](Cc1cnc2ccccc2c1)NC(=O)CN1CC[C@H](NCc2ccc3c(n2)NCCC3)C1=O [RGD I], the “activation of stress responsive kinases” value [6] is reported as “activate”, the “activation of Mst 1, Mst 2” value ([8]; 10 nM (FIG. 4B)) is reported as “effective in activating” and the “activation of 50 kDa kinase” value ([9]; 10 nM (FIG. 4B)) is reported as “effective in activating”.

In the case of O=P(O)(O)C(O)(Cc1cccnc1)P(=O)(O)O [risedronate, 1-hydroxy-2-(3-pyridinyl)-ethylidene-1,1-bisphosphonic acid], the “activation of the 34 kDa Mst kinase” value [2] is reported as “induce activation”.
